In patent US12221453B2, “Substituted pyrazolo[5′,1′:2,3]pyrimido[5,4-b][1,4]oxazines as TYK2 inhibitors” (TAKEDA PHARMACEUTICAL COMPANY LIMITED, priority 2018, dated 2025):

Key:
[1] = tested on: IL-12 induced STAT4 phosphorylation mediated by TYK2/JAK2; test: IL-12 induced pSTAT4 in human PBMC; assay type: cell-based; details: 1 hr compound, 1.7 ng/mL IL-12 for 30 minutes
Method in brief: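 Thawed human PBMC were pre-incubated with compound for 1 hr at 37 °C (0.1% DMSO), then stimulated with 1.7 ng/mL IL-12 for 30 minutes. Phospho-STAT4 and total STAT4 were measured in cell lysates by MSD.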

JAK2 (Invitrogen) kinase = JAK2 (Invitrogen) kinase (Homo sapiens (Human), UniProt O60674); test: JAK2 radioactive kinase assay; assay type: biochemical; details: compound at 10 μM; ATP at 10 μM; substrate poly[Glu:Tyr] (4:1)
Protocol: Peptide substrate, [[…]], (20 μM) was prepared in reaction buffer (20 mM Hepes pH 7.5, 10 mM MgCl2, 1 mM EGTA, 0.02% Brij35, 0.02 mg/mL BSA, 0.1 mM […], 2 mM DTT, 1% DMSO. TYK2 (Invitrogen) kinase was added, followed by compounds in DMSO. 33PATP was added to initiate the reaction in ATP at 10 μM. Kinase reaction was incubated for 120 min at room temp and reactions were spotted onto P^81 ion exchange paper (Whatman #3698-915), and then washed extensively in 0.75% phosphoric acid, prior to reading the radioactivity counts. For JAK2 (Invitrogen) kinase assay the peptide substrate poly[Glu:Tyr] (4:1), 0.2 mg/mL was used, in the reaction carried out the same as for TYK2.

[2] = target: human TYK2 (JH2domain-pseudokinase) (Homo sapiens (Human), UniProt P29597); test: TYK2 JH2 domain binding assay (KINOMEscan, DiscoveRx); details: 11-point 3-fold dilution, top concentration 30,000 nM, duplicate; read-out: hTYK2_JH2_Binding (Kd; nM)
Protocol: From these HEK 293 cells, extracts were prepared in M-PER extraction buffer (Pierce) in the presence of Protease Inhibitor Cocktail Complete (Roche) and Phosphatase Inhibitor Cocktail Set II (Merck) per manufacturers' instructions. The TYK2 (JH2domain-pseudokinase) fusion protein was labeled with a chimeric double-stranded DNA tag containing the NFkB binding site (5′-[…]-3′) fused to an amplicon for qPCR readout, which was added directly to the expression extract (the final concentration of DNA-tag in the binding reaction is 0.1 nM).
The liganded beads were blocked with excess biotin and washed with blocking buffer (SeaBlock (Pierce), 1% BSA, 0.05% Tween 20, 1 mM DTT) to remove unbound ligand and to reduce nonspecific binding.
Extracts were loaded with DNA-tag and diluted into the binding reaction in a two step process. First extracts were diluted 1:100 in 1× binding buffer (PBS/0.05% Tween 20/10 mM DTT/0.1% BSA/2 μg/ml sonicated salmon sperm DNA) containing 10 nM DNA-tag. […] Kds were determined using an 11-point 3-fold compound dilution series with three DMSO control points. […]
Kds were determined using an 11-point 3-fold compound dilution series with three DMSO control points. […] The Kds were determined using a compound top concentration of 30,000 nM. […]
Binding constants (Kds) were calculated with a standard dose-response curve using the Hill equation: […]

Chain of JAK2 (Invitrogen) kinase (O60674 whole entry): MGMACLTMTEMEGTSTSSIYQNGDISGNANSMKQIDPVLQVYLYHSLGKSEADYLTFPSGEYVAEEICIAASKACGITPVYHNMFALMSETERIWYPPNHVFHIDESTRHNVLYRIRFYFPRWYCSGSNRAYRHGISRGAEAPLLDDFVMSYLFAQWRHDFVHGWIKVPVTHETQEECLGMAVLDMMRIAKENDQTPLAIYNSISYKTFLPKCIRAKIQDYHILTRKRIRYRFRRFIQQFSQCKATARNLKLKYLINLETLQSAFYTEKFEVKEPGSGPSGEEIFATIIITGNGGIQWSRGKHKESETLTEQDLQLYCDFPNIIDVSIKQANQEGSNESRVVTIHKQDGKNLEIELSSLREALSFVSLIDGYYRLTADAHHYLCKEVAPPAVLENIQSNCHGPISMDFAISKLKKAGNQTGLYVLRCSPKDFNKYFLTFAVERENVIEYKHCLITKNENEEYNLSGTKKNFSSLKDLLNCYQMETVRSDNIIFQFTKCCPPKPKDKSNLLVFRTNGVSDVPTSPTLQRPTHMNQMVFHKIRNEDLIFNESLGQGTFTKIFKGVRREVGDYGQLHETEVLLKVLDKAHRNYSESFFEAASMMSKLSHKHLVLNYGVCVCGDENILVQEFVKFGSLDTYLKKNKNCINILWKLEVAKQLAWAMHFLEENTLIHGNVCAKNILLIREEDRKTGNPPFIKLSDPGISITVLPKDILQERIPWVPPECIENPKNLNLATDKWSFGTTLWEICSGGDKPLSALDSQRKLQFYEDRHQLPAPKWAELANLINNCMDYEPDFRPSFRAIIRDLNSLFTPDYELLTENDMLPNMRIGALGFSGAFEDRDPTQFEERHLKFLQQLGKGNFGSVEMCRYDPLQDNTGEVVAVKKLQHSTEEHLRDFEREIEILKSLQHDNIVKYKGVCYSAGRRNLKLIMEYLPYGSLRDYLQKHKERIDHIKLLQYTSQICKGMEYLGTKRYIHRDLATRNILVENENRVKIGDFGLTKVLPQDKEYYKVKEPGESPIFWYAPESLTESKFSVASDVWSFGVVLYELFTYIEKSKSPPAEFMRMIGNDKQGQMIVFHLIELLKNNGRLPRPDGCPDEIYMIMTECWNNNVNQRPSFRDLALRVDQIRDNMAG
Chain of human TYK2 (JH2domain-pseudokinase) (P29597 556-888): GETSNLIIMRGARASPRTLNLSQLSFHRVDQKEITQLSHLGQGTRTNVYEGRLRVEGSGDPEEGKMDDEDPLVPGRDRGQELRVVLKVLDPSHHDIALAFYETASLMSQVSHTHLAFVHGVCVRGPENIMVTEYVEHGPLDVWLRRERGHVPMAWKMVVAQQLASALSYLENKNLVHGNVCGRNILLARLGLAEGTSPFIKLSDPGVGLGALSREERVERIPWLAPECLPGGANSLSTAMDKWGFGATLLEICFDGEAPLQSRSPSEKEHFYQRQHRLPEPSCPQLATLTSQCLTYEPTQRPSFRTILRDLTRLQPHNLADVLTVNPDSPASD

| Compound | IC50 [1] | Kd [2] | JAK2 (% Inhibition at 10 μM) (JAK2 (Invitrogen) kinase) |
| --- | --- | --- | --- |
| CNc1cc(Nc2cccn([C@H]3[C@@H]4COC[C@@H]43)c2=O)nc2c(C(=O)N[C@@H]3C[C@H]3OC)cnn12 [I-25, 5-((1-((1R,5S,6r)-3-Oxabicyclo[3.1.0]hexan-6-yl)-2-oxo-1,2-dihydropyridin-3-yl)amino)-N-((1R,2R)-2-methoxycyclopropyl)-7-(methylamino)pyrazolo[1,5-a]pyrimidine-3-carboxamide] | < 0.1 µM |  |  |
| CNc1cc(Nc2cccn([C@H]3CC[C@H](OC)CC3)c2=O)nc2c(C(=O)N[C@@H]3C[C@H]3OC)cnn12 [I-31, 5-((1-((1r,4R)-4-Methoxycyclohexyl)-2-oxo-1,2-dihydropyridin-3-yl)amino)-N-((1R,2R)-2-methoxycyclopropyl)-7-(methylamino)pyrazolo[1,5-a]pyrimidine-3-carboxamide] | < 0.1 µM |  |  |
| CNc1cc(Nc2cccn([C@H]3CC[C@H](OC)CC3)c2=O)nc2c(C(=O)N[C@H]3C[C@@H]3OC)cnn12 [I-32, 5-((1-((1r,4S)-4-Methoxycyclohexyl)-2-oxo-1,2-dihydropyridin-3-yl)amino)-N-((1S,2S)-2-methoxycyclopropyl)-7-(methylamino)pyrazolo[1,5-a]pyrimidine-3-carboxamide] | < 0.1 µM |  |  |
| CNc1cc(Nc2cccn([C@H]3CC[C@H](OC)CC3)c2=O)nc2c(C(=O)N[C@@H]3CC[C@@H](OC)C3)cnn12 [I-69, 5-((1-((1r,4R)-4-Methoxycyclohexyl)-2-oxo-1,2-dihydropyridin-3-yl)amino)-N-((1R,3R)-3-methoxycyclopentyl)-7-(methylamino)pyrazolo[1,5-a]pyrimidine-3-carboxamide] |  |  | A (had a percent inhibition at 10 μM lower than 50) |
| CNc1cc(Nc2cccn([C@H]3CC[C@H](OC)CC3)c2=O)nc2c(C(=O)N[C@H]3CC[C@H](OC)C3)cnn12 [I-70, 5-((1-((1r,4S)-4-Methoxycyclohexyl)-2-oxo-1,2-dihydropyridin-3-yl)amino)-N-((1S,3S)-3-methoxycyclopentyl)-7-(methylamino)pyrazolo[1,5-a]pyrimidine-3-carboxamide] |  |  | A (had a percent inhibition at 10 μM lower than 50) |

The next lines start with results.

| IC50 [1] | Kd [2] | Compound | JAK2 (% Inhibition at 10 μM) (JAK2 (Invitrogen) kinase) |
| --- | --- | --- | --- |
| < 0.1 µM |  | CNc1cc(Nc2cccn([C@@H]3C[C@H]3F)c2=O)nc2c(C(=O)N[C@@H]3CC[C@H]3OC)cnn12 [I-53, 5-((1-((1R,2R)-2-Fluorocyclopropyl)-2-oxo-1,2-dihydropyridin-3-yl)amino)-N-((1R,2R)-2-methoxycyclobutyl)-7-(methylamino)pyrazolo[1,5-a]pyrimidine-3-carboxamide] |  |
| < 0.1 µM |  | CNc1cc(Nc2cccn([C@H]3C[C@H](F)C3)c2=O)nc2c(C(=O)N[C@@H]3CC[C@H]3OC)cnn12 [I-57, 5-((1-((1r,3R)-3-Fluorocyclobutyl)-2-oxo-1,2-dihydropyridin-3-yl)amino)-N-((1R,2R)-2-methoxycyclobutyl)-7-(methylamino)pyrazolo[1,5-a]pyrimidine-3-carboxamide] |  |
| 0.1 to 0.5 µM |  | CNc1cc(-c2cn([C@H]3C[C@@H](O)C3)c3ncccc23)nc2c(C(=O)NC3CC[C@H]3O)cnn12 (stereo partly drawn) [I-111, N-((cis-1,2)-2-Hydroxycyclobutyl)-5-(1-((1s,3R)-3-hydroxycyclobutyl)-1H-pyrrolo[2,3-b]pyridin-3-yl)-7-(methylamino)pyrazolo[1,5-a]pyrimidine-3-carboxamide] |  |
| < 0.1 µM |  | CNc1cc(-c2cn([C@H]3[C@@H]4COC[C@@H]43)c3ncccc23)nc2c(C(=O)N[C@H]3CC[C@@H]3OC)cnn12 [I-793, 5-(1-((1R,5S,6r)-3-oxabicyclo[3.1.0]hexan-6-yl)-1H-pyrrolo[2,3-b]pyridin-3-yl)-N-((1S,2S)-2-methoxycyclobutyl)-7-(methylamino)pyrazolo[1,5-a]pyrimidine-3-carboxamide] |  |
| < 0.1 µM | < 0.2 nM | CNc1cc(-c2cn([C@H]3CO[C@@H](COC)C3)c3ncccc23)nc2c(C(=O)N[C@H]3CC[C@@H]3OC)cnn12 [I-1018, N-((1S,2S)-2-methoxycyclobutyl)-5-(1-(5-(methoxymethyl)tetrahydrofuran-3-yl)-1H-pyrrolo[2,3-b]pyridin-3-yl)-7-(methylamino)pyrazolo[1,5-a]pyrimidine-3-carboxamide] |  |
